Measured values as given in ChEMBL document CHEMBL1147331, “Cytotoxic and antimalarial bisbenzylisoquinoline alkaloids from Stephania erecta” (J Nat Prod, 1993).
Values after ≈ are worked out from the molar mass of the structure shown.

Legend:
[1] = Selectivity index, ratio of ED50 for human ZR-75-1 cells to ED50 for chloroquine-resistant Plasmodium falciparum W2; type: toxicity, cell-based; conditions: read-out: Ratio ED50
[2] = Selectivity index, ratio of ED50 for human KB cells to ED50 for chloroquine-sensitive Plasmodium falciparum D6; type: toxicity, cell-based; conditions: read-out: Ratio ED50
[3] = Selectivity index, ratio of ED50 for human ZR-75-1 cells to ED50 for chloroquine-sensitive Plasmodium falciparum D6; type: toxicity, cell-based; conditions: read-out: Ratio ED50
[4] = Selectivity index, ratio of ED50 for human LNCaP cells to ED50 for chloroquine-resistant Plasmodium falciparum W2; type: toxicity, cell-based; conditions: read-out: Ratio ED50
in vitro [5] = conditions: human, A431 cells
Description: Selectivity index, ratio of ED50 for human A431 cells to ED50 for chloroquine-sensitive Plasmodium falciparum D6

[6] = Selectivity index, ratio of ED50 for human MEL2 cells to ED50 for chloroquine-resistant Plasmodium falciparum W2; type: toxicity, cell-based; conditions: read-out: Ratio ED50
[7] = Cytotoxicity against human BCA1 cells after 3 days by sulforhodamine B assay; type: cell-based; conditions: read-out: ED50
[8] = Cytotoxicity against human Col1 cells after 3 days by sulforhodamine B assay; type: cell-based; conditions: read-out: ED50
[9] = Cytotoxicity against human LUC1 cells after 3 days by sulforhodamine B assay; type: cell-based; conditions: read-out: ED50
in vitro [10] = conditions: mouse, P388 cells
Description: Selectivity index, ratio of ED50 for mice (Mus musculus) P388 cells to ED50 for chloroquine-sensitive Plasmodium falciparum D6

[11] = Selectivity index, ratio of ED50 for human LUC1 cells to ED50 for chloroquine-sensitive Plasmodium falciparum D6; type: toxicity, cell-based; conditions: read-out: Ratio ED50
[12] = Cytotoxicity against human ZR-75-1 cells after 3 days by sulforhodamine B assay; type: cell-based; conditions: read-out: ED50
in vitro [13] = conditions: human, A431 cells; remark: listed apart in the source
Description: Selectivity index, ratio of ED50 for human A431 cells to ED50 for chloroquine-resistant Plasmodium falciparum W2

[14] = Selectivity index, ratio of ED50 for human LNCaP cells to ED50 for chloroquine-sensitive Plasmodium falciparum D6; type: toxicity, cell-based; conditions: read-out: Ratio ED50
[15] = Cytotoxicity against human HT1080 cells after 3 days by sulforhodamine B assay; type: cell-based, HT-1080; conditions: read-out: ED50
[16] = Selectivity index, ratio of ED50 for human HT1080 cells to ED50 for chloroquine-sensitive Plasmodium falciparum D6; type: toxicity, cell-based, HT-1080; conditions: read-out: Ratio ED50
[17] = Selectivity index, ratio of ED50 for human HT1080 cells to ED50 for chloroquine-resistant Plasmodium falciparum W2; type: toxicity, cell-based, HT-1080; conditions: read-out: Ratio ED50
[18] = Cytotoxicity against mouse P388 cells after 2 days by sulforhodamine B assay; type: cell-based; conditions: read-out: ED50
[19] = Selectivity index, ratio of ED50 for human KB cells to ED50 for chloroquine-resistant Plasmodium falciparum W2; type: toxicity, cell-based; conditions: read-out: Ratio ED50
[20] = Selectivity index, ratio of ED50 for human KB-V1 cells to ED50 for chloroquine-resistant Plasmodium falciparum W2; type: toxicity, cell-based; conditions: read-out: Ratio ED50
[21] = Selectivity index, ratio of ED50 for human COL1 cells to ED50 for chloroquine-resistant Plasmodium falciparum W2; type: toxicity, cell-based; conditions: read-out: Ratio ED50
[22] = Cytotoxicity against human LNCAP cells after 3 days by sulforhodamine B assay; type: cell-based; conditions: read-out: ED50
in vitro [23] = conditions: mouse, P388 cells; remark: listed apart in the source
Description: Selectivity index, ratio of ED50 for mice (Mus musculus) P388 cells to ED50 for chloroquine-resistant Plasmodium falciparum W2

[24] = Cytotoxicity against human KBV1 cells after 3 days by sulforhodamine B assay; type: cell-based, KB-V1; conditions: read-out: ED50
[25] = Selectivity index, ratio of ED50 for human KB-V1 cells to ED50 for chloroquine-sensitive Plasmodium falciparum D6; type: toxicity, cell-based; conditions: read-out: Ratio ED50
[26] = Selectivity index, ratio of ED50 for human MEL2 cells to ED50 for chloroquine-sensitive Plasmodium falciparum D6; type: toxicity, cell-based; conditions: read-out: Ratio ED50
[27] = Cytotoxicity against human A431 cells after 3 days by sulforhodamine B assay; type: cell-based, A-431; conditions: read-out: ED50
Plasmodium falciparum [28] = assay: Antimalarial activity after 24 hrs against chloroquine-resistant Plasmodium falciparum W2 infected type A+ human erythrocytes by [3H]hypoxanthine uptake; type: functional; conditions: read-out: ED50 (the source's name)
[29] = Ratio of ED50 for human KB cells to ED50 for human KBV1 cells; type: ADME, cell-based; conditions: KB cells and KBV1 cells, read-out: Ratio ED50
[30] = Selectivity index, ratio of ED50 for human LUC1 cells to ED50 for chloroquine-resistant Plasmodium falciparum W2; type: toxicity, cell-based; conditions: read-out: Ratio ED50
[31] = Cytotoxicity against human SK-MEL-2 cells after 3 days by sulforhodamine B assay; type: cell-based; conditions: read-out: ED50
Plasmodium falciparum [32] = assay: Antimalarial activity after 24 hrs against chloroquine-sensitive Plasmodium falciparum D6 infected type A+ human erythrocytes by [3H]hypoxanthine uptake; type: functional; conditions: read-out: ED50 (the source's name)
[33] = Selectivity index, ratio of ED50 for human BCA1 cells to ED50 for chloroquine-sensitive Plasmodium falciparum D6; type: toxicity, cell-based; conditions: read-out: Ratio ED50
[34] = Selectivity index, ratio of ED50 for human BCA1 cells to ED50 for chloroquine-resistant Plasmodium falciparum W2; type: toxicity, cell-based; conditions: read-out: Ratio ED50
[35] = Cytotoxicity against human KB cells after 3 days by sulforhodamine B assay; type: cell-based; conditions: read-out: ED50
[36] = Selectivity index, ratio of ED50 for human COL1 cells to ED50 for chloroquine-sensitive Plasmodium falciparum D6; type: toxicity, cell-based; conditions: read-out: Ratio ED50

COc1ccc2cc1Oc1ccc(cc1)C[C@H]1c3c(cc(OC)c4c3Oc3cc5c(cc3O4)CCN(C)[C@@H]5C2)CCN1C
selectivity ratio [1]: 5
selectivity ratio [2]: 49
selectivity ratio [3]: 12
selectivity ratio [4]: 8
selectivity ratio (in vitro [5]): 27
selectivity ratio [6]: 34
CC50 at 72 h [7]: 2.3 µg/mL (≈ 3.99 µM)
CC50 at 72 h [8]: 3.6 µg/mL (≈ 6.24 µM)
CC50 at 72 h [9]: 7.7 µg/mL (≈ 13.4 µM)
selectivity ratio (in vitro [10]): 57
selectivity ratio [11]: 79
CC50 at 72 h [12]: 1.2 µg/mL (≈ 2.08 µM)
selectivity ratio (in vitro [13]): 10
selectivity ratio [14]: 22
CC50 at 72 h [15]: 2.2 µg/mL (≈ 3.81 µM)
selectivity ratio [16]: 23
selectivity ratio [17]: 9
CC50 at 48 h [18]: 5.6 µg/mL (≈ 9.71 µM)
selectivity ratio [19]: 19
selectivity ratio [20]: 2
selectivity ratio [21]: 14
CC50 at 72 h [22]: 2.1 µg/mL (≈ 3.64 µM)
selectivity ratio (in vitro [23]): 22
CC50 at 72 h [24]: 0.4 µg/mL (≈ 0.694 µM)
selectivity ratio [25]: 4
selectivity ratio [26]: 89
CC50 at 72 h [27]: 2.6 µg/mL (≈ 4.51 µM)
EC50 (Plasmodium falciparum [28]): 0.256 µg/mL (≈ 0.443 µM)
selectivity ratio [29]: 10
selectivity ratio [30]: 30
CC50 at 72 h [31]: 8.7 µg/mL (≈ 15.1 µM)
EC50 (Plasmodium falciparum [32]): 0.0974 µg/mL (≈ 0.169 µM)
selectivity ratio [33]: 24
selectivity ratio [34]: 9
CC50 at 72 h [35]: 4.8 µg/mL (≈ 8.32 µM)
selectivity ratio [36]: 37
